PubChem BioAssay AID1963971 (Molecular Pharmacology Branch, DTP, NCI, 2024)

Test system: 953936-095-R-J2-PDC spheroids with HUVEC/MSC, viability
Assay: Anticancer human tumor 953936-095-R-J2-PDC patient-derived cervical squamous cell carcinoma cell line growth inhibition [PI3K]
Conditions: for IC50: curve of first compound; for viability, T/C: stronger effect = lower value
In short: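 High-throughput combination screen: PI3K inhibitors crossed with targeted small molecules on complex spheroids of tumor cells, HUVEC and MSCs at 37 degrees C, 5% CO2. Top concentration was at or near clinical Cmax (otherwise 10 microM), with half-log decrements.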

[1] = second compound 0.00316 µM, first compound 0.000316 µM
[2] = second compound 0.00316 µM, first compound 0.001 µM
[3] = second compound 0.00316 µM, first compound 0.00316 µM
[4] = second compound 0.00316 µM, first compound 0.01 µM
[5] = second compound 0.00316 µM, first compound 0.0316 µM
[6] = second compound 0.00316 µM, first compound 0.1 µM
[7] = second compound 0.01 µM, first compound 0.000316 µM
[8] = second compound 0.01 µM, first compound 0.001 µM
[9] = second compound 0.01 µM, first compound 0.00316 µM
[10] = second compound 0.01 µM, first compound 0.01 µM
[11] = second compound 0.01 µM, first compound 0.0316 µM
[12] = second compound 0.01 µM, first compound 0.1 µM
[13] = second compound 0.0316 µM, first compound 0.000316 µM
[14] = second compound 0.0316 µM, first compound 0.001 µM
[15] = second compound 0.0316 µM, first compound 0.00316 µM
[16] = second compound 0.0316 µM, first compound 0.01 µM
[17] = second compound 0.0316 µM, first compound 0.0316 µM
[18] = second compound 0.0316 µM, first compound 0.1 µM
[19] = second compound 0.1 µM, first compound 0.000316 µM
[20] = second compound 0.1 µM, first compound 0.001 µM
[21] = second compound 0.1 µM, first compound 0.00316 µM
[22] = second compound 0.1 µM, first compound 0.01 µM
[23] = second compound 0.1 µM, first compound 0.0316 µM
[24] = second compound 0.1 µM, first compound 0.1 µM
[25] = second compound 0.316 µM, first compound 0.000316 µM
[26] = second compound 0.316 µM, first compound 0.001 µM
[27] = second compound 0.316 µM, first compound 0.00316 µM
[28] = second compound 0.316 µM, first compound 0.01 µM
[29] = second compound 0.316 µM, first compound 0.0316 µM
[30] = second compound 0.316 µM, first compound 0.1 µM
[31] = second compound 1 µM, first compound 0.000316 µM
[32] = second compound 1 µM, first compound 0.001 µM
[33] = second compound 1 µM, first compound 0.00316 µM
[34] = second compound 1 µM, first compound 0.01 µM
[35] = second compound 1 µM, first compound 0.0316 µM
[36] = second compound 1 µM, first compound 0.1 µM
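Further: spheroids exposed to compounds for seven days before read-out.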

## CC(=O)c1c(C)c2cnc(Nc3ccc(N4CCNCC4)cn3)nc2n(C2CCCC2)c1=O + COc1c(OCCCN2CCOCC2)ccc2c3n(c(=NC(=O)c4cnc(N)nc4)nc12)CCN3
Second compound 0.00316 µM
  IC50: > 100 nM
Second compound 0.01 µM
  IC50: > 100 nM
Second compound 0.0316 µM
  IC50: < 0.316 nM
Second compound 0.1 µM
  IC50: < 0.316 nM
Second compound 0.316 µM
  IC50: < 0.316 nM
Second compound 1 µM
  IC50: < 0.316 nM
[1]
  viability, T/C: 87.4%
[2]
  viability, T/C: 85.6%
[3]
  viability, T/C: 105%
[4]
  viability, T/C: 88.4%
[5]
  viability, T/C: 94.3%
[6]
  viability, T/C: 81.4%
[7]
  viability, T/C: 71.5%
[8]
  viability, T/C: 77.9%
[9]
  viability, T/C: 82.6%
[10]
  viability, T/C: 78%
[11]
  viability, T/C: 76.9%
[12]
  viability, T/C: 66.6%
[13]
  viability, T/C: 40.5%
[14]
  viability, T/C: 40.2%
[15]
  viability, T/C: 36.7%
[16]
  viability, T/C: 40.6%
[17]
  viability, T/C: 38.2%
[18]
  viability, T/C: 37.1%
[19]
  viability, T/C: 20.1%
[20]
  viability, T/C: 17.4%
[21]
  viability, T/C: 18.9%
[22]
  viability, T/C: 19.3%
[23]
  viability, T/C: 17.6%
[24]
  viability, T/C: 18.4%
[25]
  viability, T/C: 6.83%
[26]
  viability, T/C: 6.01%
[27]
  viability, T/C: 6.03%
[28]
  viability, T/C: 7.86%
[29]
  viability, T/C: 7.33%
[30]
  viability, T/C: 5.96%
[31]
  viability, T/C: 1.78%
[32]
  viability, T/C: 1.73%
[33]
  viability, T/C: 1.47%
[34]
  viability, T/C: 1.54%
[35]
  viability, T/C: 2.14%
[36]
  viability, T/C: 1.68%

## CC(C)n1nc(-c2ccc3oc(N)nc3c2)c2c(N)ncnc21 + COc1c(OCCCN2CCOCC2)ccc2c3n(c(=NC(=O)c4cnc(N)nc4)nc12)CCN3
Second compound 0.00316 µM
  IC50: 18.9 nM
Second compound 0.01 µM
  IC50: 10.2 nM
Second compound 0.0316 µM
  IC50: < 0.316 nM
Second compound 0.1 µM
  IC50: < 0.316 nM
Second compound 0.316 µM
  IC50: < 0.316 nM
Second compound 1 µM
  IC50: < 0.316 nM
[1]
  viability, T/C: 79%
[2]
  viability, T/C: 86.9%
[3]
  viability, T/C: 84%
[4]
  viability, T/C: 60.3%
[5]
  viability, T/C: 40.3%
[6]
  viability, T/C: 14.4%
[7]
  viability, T/C: 66.7%
[8]
  viability, T/C: 64.8%
[9]
  viability, T/C: 60.1%
[10]
  viability, T/C: 51.5%
[11]
  viability, T/C: 27.8%
[12]
  viability, T/C: 11.2%
[13]
  viability, T/C: 38.8%
[14]
  viability, T/C: 36%
[15]
  viability, T/C: 31.5%
[16]
  viability, T/C: 23.5%
[17]
  viability, T/C: 16.2%
[18]
  viability, T/C: 7.15%
[19]
  viability, T/C: 18.2%
[20]
  viability, T/C: 15.9%
[21]
  viability, T/C: 14.9%
[22]
  viability, T/C: 11.2%
[23]
  viability, T/C: 8.1%
[24]
  viability, T/C: 4.33%
[25]
  viability, T/C: 6.68%
[26]
  viability, T/C: 6.67%
[27]
  viability, T/C: 5.27%
[28]
  viability, T/C: 4.78%
[29]
  viability, T/C: 3.56%
[30]
  viability, T/C: 2.2%
[31]
  viability, T/C: 1.45%
[32]
  viability, T/C: 1.56%
[33]
  viability, T/C: 1.21%
[34]
  viability, T/C: 1.41%
[35]
  viability, T/C: 1.36%
[36]
  viability, T/C: 1.27%

## CCCS(=O)(=O)Nc1ccc(F)c(C(=O)c2c[nH]c3ncc(-c4ccc(Cl)cc4)cc23)c1F + COc1c(OCCCN2CCOCC2)ccc2c3n(c(=NC(=O)c4cnc(N)nc4)nc12)CCN3
Second compound 0.00316 µM
  IC50: 5050 nM
Second compound 0.01 µM
  IC50: 4630 nM
Second compound 0.0316 µM
  IC50: < 31.6 nM
Second compound 0.1 µM
  IC50: < 31.6 nM
Second compound 0.316 µM
  IC50: < 31.6 nM
Second compound 1 µM
  IC50: < 31.6 nM
[5]
  viability, T/C: 81.3%
[6]
  viability, T/C: 94.1%
Second compound 0.00316 µM, first compound 0.316 µM
  viability, T/C: 85.1%
Second compound 0.00316 µM, first compound 1 µM
  viability, T/C: 93.1%
Second compound 0.00316 µM, first compound 3.16 µM
  viability, T/C: 83.7%
Second compound 0.00316 µM, first compound 10 µM
  viability, T/C: 0.64%
[11]
  viability, T/C: 73.6%
[12]
  viability, T/C: 72.5%
Second compound 0.01 µM, first compound 0.316 µM
  viability, T/C: 73.8%
Second compound 0.01 µM, first compound 1 µM
  viability, T/C: 78.4%
Second compound 0.01 µM, first compound 3.16 µM
  viability, T/C: 74.5%
Second compound 0.01 µM, first compound 10 µM
  viability, T/C: 0.66%
[17]
  viability, T/C: 50.7%
[18]
  viability, T/C: 46%
Second compound 0.0316 µM, first compound 0.316 µM
  viability, T/C: 40.8%
Second compound 0.0316 µM, first compound 1 µM
  viability, T/C: 45.7%
Second compound 0.0316 µM, first compound 3.16 µM
  viability, T/C: 37.6%
Second compound 0.0316 µM, first compound 10 µM
  viability, T/C: 2.52%
[23]
  viability, T/C: 18.3%
[24]
  viability, T/C: 17.4%
Second compound 0.1 µM, first compound 0.316 µM
  viability, T/C: 17.1%
Second compound 0.1 µM, first compound 1 µM
  viability, T/C: 18.9%
Second compound 0.1 µM, first compound 3.16 µM
  viability, T/C: 17.3%
Second compound 0.1 µM, first compound 10 µM
  viability, T/C: 0.92%
[29]
  viability, T/C: 7.34%
[30]
  viability, T/C: 5.95%
Second compound 0.316 µM, first compound 0.316 µM
  viability, T/C: 6.85%
Second compound 0.316 µM, first compound 1 µM
  viability, T/C: 7.94%
Second compound 0.316 µM, first compound 3.16 µM
  viability, T/C: 7.74%
Second compound 0.316 µM, first compound 10 µM
  viability, T/C: 1.13%
[35]
  viability, T/C: 1.84%
[36]
  viability, T/C: 1.61%
Second compound 1 µM, first compound 0.316 µM
  viability, T/C: 1.73%
Second compound 1 µM, first compound 1 µM
  viability, T/C: 2.48%
Second compound 1 µM, first compound 3.16 µM
  viability, T/C: 2.83%
Second compound 1 µM, first compound 10 µM
  viability, T/C: 0.45%
